Test results published in PubChem BioAssay (NCI).
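In this assay, cells in 96-well plates receive the compound at five concentrations for 48 hours. Endpoints are linearly interpolated between the surrounding concentrations. TGI: total growth inhibition.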 Where a SMILES comes first, the peptide text is derived from it. [ ]: non-standard residue; d: D form. The star is where a group is joined. ξ: configuration not given here. ξD = NC(CC(=O)O)C(=O)O; Ac3c = NC1(C(=O)O)CC1; Boc = CC(C)(C)OC(=O)*; OBn = c1ccc(CO*)cc1

What was measured:
Assay in all cases: NCI anticancer screen, dose series, 48 h
HOP-62 NSCLC = system: HOP-62 NSCLC
RPMI-8226 leukemia = system: RPMI-8226 leukemia
HS 578T breast = system: HS 578T breast
HT29 colon = system: HT29 colon
OVCAR-3 ovarian = system: OVCAR-3 ovarian
LOX IMVI melanoma = system: LOX IMVI melanoma
MCF7 breast = system: MCF7 breast
UO-31 renal = system: UO-31 renal
SK-MEL-2 melanoma = system: SK-MEL-2 melanoma
NCI-H23 lung = system: NCI-H23 lung

Row | SMILES | TGI (HOP-62 NSCLC) [µM] | TGI (RPMI-8226 leukemia) [µM] | TGI (HS 578T breast) [µM] | TGI (HT29 colon) [µM] | TGI (OVCAR-3 ovarian) [µM] | TGI (LOX IMVI melanoma) [µM] | TGI (MCF7 breast) [µM] | TGI (UO-31 renal) [µM] | TGI (SK-MEL-2 melanoma) [µM] | TGI (NCI-H23 lung) [µM]
1 | COCN1CCN=c2c1c1c3c(c4ccccc4n23)CCC1 | > 100 | > 100 | > 100 | > 100 | > 100 | > 100 | > 100 | > 100 | > 100 | > 100
2 | Cc1cc(Nc2ccc(N=Nc3ccc(O)c4ncccc34)cc2)nc(C)n1 | > 69.6 | 32.5 | > 59.4 | > 75.2 | > 29.5 | 43.8 | 52.2 | 36.5 | 34.4 | > 54.2
3 | O=c1c2ccccc2n2nnc3ccc(NCCCNCCNCCCNc4ccc5nnn6c7ccccc7c(=O)c4c56)c1c32 | 12.3 | > 12.4 | 37.6 | 1.52 | 16.8 | 24 | 6.92 | 19.5 | > 50 | 15.3
4 | OCC(Cn1cncn1)(c1ccc(F)cc1F)n1cncn1 (stereo not given) | > 100 | > 100 | > 100 | > 100 | > 100 | > 100 | > 100 | > 100 | > 100 | > 100
5 | CC(NC1=NCCO1)c1cccc([N+](=O)[O-])c1 (stereo not given) | > 100 | > 100 | > 100 | > 100 | > 100 | > 100 | > 100 | > 100 | > 100 | > 100
6 | O=C(Nc1nnc(-c2ccccc2)o1)C(SC(=S)N1CCOCC1)c1ccccc1 (stereo not given) | > 100 | > 100 | > 100 | > 100 | 79.7 | > 100 | > 100 | > 100 | > 100 | 69
7 | O=C(OCCN1CCCCC1)C(c1ccccc1)C1(O)CCSCC1 (stereo not given) | > 100 | > 100 | > 100 | > 100 | > 100 | > 100 | > 100 | > 100 | > 100 | > 100
8 | CCOC(=O)C(NC(=O)CC(C)C)(Nc1ccc(C(F)(F)F)cc1)C(F)(F)F (stereo not given) | > 100 | 93.8 | > 100 | > 100 | > 100 | > 100 | > 100 | > 100 | > 100 | > 100
9 | CC1(C)CN(c2ccccc2)C(=O)C1OC(=O)[C@@]1(C)C[C@@H]2C=C[C@H]1C2 (stereo not given in full) | 40.8 | 30 | 54.7 | 28.8 | > 100 | 40.3 | 58 | 30.8 | 35.4 | 56
10 | C=CC(C)(C)N[C@@H](C(=O)N1CCC[C@H]1c1nc(-c2nc(C(=O)OCC=C(C)C)c(C)o2)c(C)o1)C(C)C | 51.7 | 61.8 | 40.2 | 46.1 | 59.5 | > 100 | 91.4 | 38.3 | 73.5 | 48.1
11 | CC(NC(=O)OCc1ccccc1)NC(=O)C(CC(=O)OC(C)(C)C)NC(=O)OC(C)(C)C (stereo not given) | > 100 | > 100 | > 100 | > 100 | > 100 | > 100 | > 100 | > 100 | > 100 | > 100
12 | O=C(c1ccccc1)c1c(C(F)(F)F)n([O-])c2cc(Cl)c(Cl)cc2[n+]1=O | 0.909 | 1.15 | 2.9 | 0.966 | 0.815 | 2.46 | 1.24 | 4.21 | 7.7 | 1.11
13 | CC(C)[C@H]1NC(=O)[C@H]2N=C(O[C@@H]2C)[C@@H]2CCCN2C(=O)[C@H](Cc2ccccc2)NC(=O)[C@@H]2CSC(=N2)[C@@H](Cc2ccccc2)NC(=O)[C@@H]2CSC1=N2 | > 100 | 94.9 | > 100 | > 100 | > 100 | > 100 | > 100 | > 100 | > 100 | > 100
14 | N/N=C1/C(=N/O)CCc2nonc21 | > 100 | > 100 | > 100 | > 100 | > 100 | > 100 | > 100 | > 100 | > 100 | > 100
15 | O=C(CN1CCCCC1)c1ccc2c(c1)Sc1ccccc1O2 | 32.5 | > 100 | 21.6 | 23.7 | 29.6 | 40.3 | 30.9 | 22.9 | 32.8 | 27.9
16 | COC(=O)C1(NC(=O)C(CC(=O)OCc2ccccc2)NC(=O)OC(C)(C)C)CC1 (stereo not given) (Boc-[ξD](OBn)-[Ac3c]-OMe) | > 100 | > 100 | > 100 | > 100 | > 100 | > 100 | > 100 | > 100 | > 100 | > 100
17 | C[C@H](CC[C@@H](O)C(C)(C)O)[C@H]1CC[C@@]2(C)[C@@H]3CC=C4[C@@H](CC[C@H](O)C4(C)C)[C@]3(C)C(=O)C[C@]12C | > 50 | 29.8 | > 50 | > 50 | > 50 | > 50 | > 50 | > 50 | > 50 | > 50
18 | CC(=Nc1c2ccccc2nc2ccccc12)N(C)C | 66.2 | 38.2 | 69.8 | 27.4 | 46.5 | 26.7 | 78.8 | 54.6 | 46 | 41.1
19 | O=C(/C=C/c1ccc(-c2ccccc2)cc1)NCc1ccc(C(=O)NCCc2c[nH]c3ccccc23)cc1 | 36.7 | > 100 | > 100 | 29.3 | 92.6 | > 100 | > 100 | > 100 | > 100 | > 100
20 | COc1ccc(/C=C(\C(=C/c2ccc(OC)cc2)[N+](=O)[O-])[N+](=O)[O-])cc1 | 21.2 | 13 | 43.9 | 11.1 | 71.4 | 5 | 27.3 | 16.7 | 39.7 | 16
21 | COc1ccc2c(c1)nc1n2C(N)=Nc2ccccc2S1 | > 100 | > 82.2 | > 100 | > 100 | 67.8 | > 72.8 | > 100 | > 100 | > 100 | > 100
22 | N#CC(C#N)=Cc1c(O)ccc2ccccc12 | 50.2 | 38.6 | 55.5 | 41.1 | 27.4 | 26.6 | 34.3 | 28.5 | 37.8 | 26.9
23 | O=C1CCC2(CC1CCSc1ccccc1)OCCO2 (stereo not given) | > 100 | > 100 | > 100 | > 100 | > 100 | > 100 | > 100 | > 100 | > 100 | > 100
24 | C1#Cc2ccccc2OCCOc2ccccc2C#Cc2ccccc2OCCOc2ccccc21 | 23.2 | 42.4 | 64.3 | > 100 | 39.3 | 33.4 | > 100 | > 100 | > 100 | 34.8
25 | O=c1[nH]c2ccccc2nc1/C=C(\O)C(F)F | > 100 | > 100 | > 100 | > 100 | > 100 | > 100 | > 100 | > 100 | > 100 | > 100
26 | COc1ccc(/C=C2\CC3C4CC=C5C[C@@H](O)CC[C@]5(C)C4CC[C@]3(C)\C2=N\O)cc1OC (stereo not given in full) | > 100 | > 100 | > 100 | > 100 | 8.74 | > 100 | > 100 | 9.97 | 42.3 | > 100
27 | COC(=O)c1ccc(CCc2cc(O)ccc2O)cc1 | 48.6 | 4.16 | > 39.5 | > 79.9 | 12.1 | 22.7 | > 62.2 | 7.04 | 55.6 | > 54.9
